Laboratory results as given in the supplement of paper PMC10307832.

Columns and labels:
Assay in all cases: relative viability (nuclei count vs DMSO), 5 days (fraction); higher = more cells survive
[1] = compound: Cc1ccccc1C(C(=O)NC1CCCCC1)N(C(=O)Cn1ccnc1C)c1cccc(F)c1 [IDH-C35] + CCNC(=O)c1noc(-c2cc(C(C)C)c(O)cc2O)c1-c1ccc(CN2CCOCC2)cc1 [Luminespib] (partner 0.01 µM)
Method in brief: (§1)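 A single step with final 0.05% Triton X-100, 1% formaldehyde and 1 ug/ml Hoechst fixed the cells and stained nuclei 5 days after treatment. Lung cancer cell lines in 1536-well plates had been treated by pin tool the day after seeding with one drug alone or a fixed anchor-drug dose plus five library-drug doses (not always all listed) in √10 steps, and nuclei were counted on 4× images. Relative viability is the ratio of nuclei in treated wells to nuclei in vehicle wells, taken as the median of duplicate plates.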

[2] = compound: Cc1ccccc1C(C(=O)NC1CCCCC1)N(C(=O)Cn1ccnc1C)c1cccc(F)c1 [IDH-C35] + Cc1nc(NC(=O)N2CCC[C@H]2C(N)=O)sc1-c1ccnc(C(C)(C)C(F)(F)F)c1 [Alpelisib] (partner 2 µM)
Method in brief: as §1

[3] = compound: CC1=C(C(=NN1)C)CC2=C(C3=C(S2)N(C(=O)N(C3=O)C)CC(C)C)C(=O)N4C[C@@H](CO4)O + N=C(N)NC(=N)NCCc1ccccc1 [Phenformin] (partner 250 µM)
Method in brief: as §1

[4] = compound: CC1=C(C(=NN1)C)CC2=C(C3=C(S2)N(C(=O)N(C3=O)C)CC(C)C)C(=O)N4C[C@@H](CO4)O + CC1(C)CCC(c2ccc(Cl)cc2)=C(CN2CCN(c3ccc(C(=O)NS(=O)(=O)c4ccc(N[C@H](CCN5CCOCC5)CSc5ccccc5)c(S(=O)(=O)C(F)(F)F)c4)cc3)CC2)C1 [Navitoclax] (partner 0.5 µM)
Method in brief: as §1

Cell Line | relative viability ([1]; first compound 0.08 µM) | relative viability ([1]; first compound 0.253 µM) | relative viability ([1]; first compound 0.8 µM) | relative viability ([1]; first compound 2.53 µM) | relative viability ([1]; first compound 8 µM) | relative viability ([2]; first compound 0.08 µM) | relative viability ([2]; first compound 0.253 µM) | relative viability ([2]; first compound 0.8 µM) | relative viability ([2]; first compound 2.53 µM) | relative viability ([2]; first compound 8 µM) | relative viability ([3]; first compound 0.0025 µM) | relative viability ([3]; first compound 0.007906 µM) | relative viability ([3]; first compound 0.025 µM) | relative viability ([3]; first compound 0.07906 µM) | relative viability ([3]; first compound 0.25 µM) | relative viability ([4]; first compound 0.0025 µM) | relative viability ([4]; first compound 0.007906 µM) | relative viability ([4]; first compound 0.025 µM) | relative viability ([4]; first compound 0.07906 µM) | relative viability ([4]; first compound 0.25 µM)
201T | 1.05 | 1.07 | 1.02 | 1.04 | 1.01 | 0.989 | 0.998 | 0.95 | 0.968 | 1.02 | 0.468 | 0.383 | 0.426 | 0.472 | 0.426 | 1.22 | 1.22 | 1.17 | 1.14 | 1.21
A549 |  |  |  |  |  | 0.734 | 0.871 | 0.771 | 0.744 | 0.726 | 0.116 | 0.0979 | 0.151 | 0.161 | 0.168 | 1.32 | 1.27 | 1.14 | 1.32 | 1.24
A-427 | 0.914 | 0.892 | 0.785 | 0.87 | 0.852 | 1.06 | 1.04 | 1.04 | 1.07 | 1.1 | 0.301 | 0.264 | 0.24 | 0.375 | 0.349 | 1.01 | 0.948 | 0.889 | 0.886 | 1.16
ABC-1 | 0.598 |  | 0.688 | 0.805 | 0.818 | 0.907 | 1.03 | 1 | 1.05 | 0.857 | 0.18 | 0.174 | 0.173 | 0.186 | 0.214 |  |  |  |  | 
BEN | 0.373 | 0.391 | 0.311 | 0.425 | 0.333 | 0.988 | 0.927 | 0.885 | 0.975 | 0.942 | 0.223 | 0.166 | 0.221 | 0.18 | 0.206 | 0.0618 | 0.0913 | 0.0867 | 0.0968 | 0.0771
CAL-12T | 0.498 | 0.314 | 0.36 | 0.188 | 0.363 | 1.26 | 1.26 | 1.11 | 1.14 | 1.1 | 0.551 | 0.627 | 0.544 | 0.629 | 0.575 | 1.27 | 1.39 | 1.03 | 1.37 | 1.33
COR-L23 | 0.789 | 0.656 | 0.664 | 0.641 | 0.679 | 0.759 | 0.765 | 0.782 | 0.769 | 0.746 | 0.397 | 0.395 | 0.342 | 0.355 | 0.344 | 0.783 | 0.984 | 0.777 | 0.781 | 0.845
COR-L 105 | 0.722 | 0.951 | 0.715 | 0.819 | 0.742 | 1.04 | 1.08 | 1.13 | 0.882 | 0.99 | 0.34 | 0.324 | 0.231 | 0.279 | 0.244 | 0.969 | 0.768 | 0.682 | 0.561 | 0.657
Calu-6 |  |  |  |  |  | 1 | 0.973 | 0.955 | 0.97 | 1.05 |  |  |  |  |  | 0.925 | 0.827 | 0.805 | 0.906 | 0.892
ChaGo-K-1 | 0.733 | 0.625 | 0.623 | 0.697 | 0.67 |  |  |  |  |  | 0.467 | 0.451 | 0.407 | 0.447 | 0.47 | 0.996 | 0.903 |  | 1.21 | 1.5
EBC-1 |  |  |  |  |  | 0.879 | 0.826 | 0.843 | 0.867 | 0.738 |  |  |  |  |  | 0.473 | 0.426 | 0.485 | 0.498 | 0.494
EKVX | 0.93 | 0.908 | 0.822 | 0.842 | 0.845 | 0.868 | 0.858 | 0.852 | 0.819 | 0.831 | 0.241 | 0.224 | 0.233 | 0.243 | 0.227 | 1 | 1.04 | 0.988 | 0.907 | 0.933
EMC-BAC-2 | 1.18 | 1.18 | 1.18 | 1.14 | 1.14 | 0.79 | 0.665 | 0.739 | 0.756 | 0.709 | 0.538 | 0.548 | 0.518 | 0.478 | 0.601 | 1.16 | 1.14 | 1.16 | 1.16 | 1.38
EPLC-272H | 0.262 | 0.265 | 0.605 | 0.351 | 0.428 | 1.04 | 0.942 | 0.895 |  | 0.897 | 0.362 | 0.272 | 0.281 | 0.298 | 0.361 | 1.17 | 1.26 | 1.07 | 1.08 | 1.28
H3255 | 0.845 | 0.998 | 0.734 | 1.03 | 0.882 | 0.681 | 0.822 | 0.633 | 0.774 | 0.637 | 0.338 | 0.368 | 0.364 | 0.389 | 0.39 | 0.562 | 0.542 | 0.516 | 0.487 | 0.568
HARA | 0.783 | 0.761 | 0.637 |  | 0.617 | 0.727 | 0.8 | 0.874 | 0.78 | 0.729 | 0.365 | 0.378 | 0.309 | 0.234 | 0.246 | 1.26 | 1.2 | 1.07 | 1.1 | 1.15
HCC-15 | 0.246 | 0.251 | 0.178 |  | 0.314 | 0.904 | 0.844 | 0.822 | 0.854 | 0.852 | 0.486 | 0.49 | 0.46 | 0.482 | 0.518 | 0.735 | 0.725 | 0.712 | 0.698 | 0.675
HCC-44 | 1.06 | 1.06 | 0.986 | 1.04 | 1.05 | 0.821 | 0.764 | 0.737 | 0.827 | 0.763 | 0.263 | 0.223 | 0.142 | 0.208 | 0.225 | 0.925 | 1.08 | 1.04 | 0.892 | 1.19
